Values of other authors in patent US20140315870A1, “COMPOSITION COMPRISING A GLUCOCORTICOID AND A THIAZOLIDINEDIONE FOR INDUCING COMPELTE ADIPOGENIC DIFFERENTIATION OF MAMMALIAN STEM CELLS” (UNIVERSIDAD DEL DESARROLLO, priority 2011, published 2014).

Conditions: chronic consumption in humans

SMILES: CN(CCOc1ccc(CC2SC(=O)NC2=O)cc1)c1ccccn1 (stereo not shown) [rosiglitazone]
- increase in the chance for cardiovascular accidents: 50%
